Reference: article PMC6736837, “^18F-labelled triazolyl-linked argininamides targeting the neuropeptide Y Y1R for PET imaging of mammary carcinoma” (Scientific Reports, 2019)
Entries after “also recorded” stand apart in the source; their conditions may differ.

Legend:
Y1R = biological target: Y1R; parameters: method as in PMID 28337321; settings: displacement of [^3H]UR-MK114, SK-N-MC neuroblastoma cells; cited from earlier work
[1] = Octanol-water distribution coefficient logD7.4, shake flask method; type: physicochemical; settings: 1-octanol/PBS, pH 7.4, PBS/1-octanol, read-out: logD7.4 experimental
Experimental: The lipophilicity of the radioligands was determined by the distribution coefficient logD7.4. The respective radioligand (10 µL, about 25 kBq) was added to a mixture of PBS (500 µL) and 1-octanol (500 µL) and the emulsion was vortexed for 1 min. After centrifugation 3 × 100 µL were taken of each layer and analysed by a γ-counter. The partition coefficient was calculated as logD7.4=log(cpmoctanol/cpmPBS) . Data were expressed as mean values ± SD from three experiments.

[2] = Binding to human plasma proteins by gel filtration; type: in vitro ADME; settings: 37 °C, read-out: Free fraction in plasma
Experimental: The binding of ^18F-labelled compounds to plasma proteins was determined using gel filtration columns(illustra™ MicroSpin™ G-50 Columns, GE Healthcare Life Sciences, Freiburg). An aliquot of the radiotracer (approx. 100 kBq) was added to 200 µL of saline, and 100 µL of human plasma, respectively. Both samples were incubated at 37 °C for 10 min. MicroSpin™ columns were prepared according to the user instruction. Then 25 µL of the incubated radiotracer were given onto the columns and the devices were centrifuged (2000 × g, 2 min). Eluate and solid phase were analysed in the γ-counter (Wallac Wizard). The percentage of unbound radioligand was calculated as %free=cpmsolidphase/cpmsolidphase+cpmeluate . The sample in saline was used as control.

[3] = Radiotracer stability in human serum by radio-HPLC; type: in vitro ADME; settings: 37 °C
Experimental: The stability of ^18F-labelled compounds was determined in human serum. An aliquot of the radiotracer (5–10 MBq) was added to 200 µL human serum and incubated at 37 °C. Aliquots of 15 µL were taken after 5, 10, 15, 30, 45, 60, 120 and 180 min and quenched in 100 µL of 10% aqueous TFA. The samples were centrifuged (20000 × g, 2 min), and the supernatants were analysed by radio-HPLC (Chromolith RP-18e, 100 × 4.6 mm, 4 mL/min, 0–1 min 25% CH3CN (0.1% TFA) in water (0.1% TFA), 1–6 min 25–60%, 6–7 min 60–100%, 7–8 min 100%).

MCF-7-Y1 tumour slices = assay: In-vitro autoradiography on MCF-7-Y1 tumour xenograft slices; type: binding, human; settings: blocking with 1 µM and 10 µM BIBP3226
Experimental: MCF-7-Y1 tumour bearing mice were sacrificed by cervical dislocation under deep isoflurane anesthesia and tumours were excised and subsequently frozen in a hexane/dry ice bath (−70 °C). MCF-7-Y1 tumour slices (14 µm) were prepared on a cryostat microtome HM 500 O (Microm, Walldorf) and thaw-mounted on Histobond® adhesive glass slides (Marienfeld, Lauda-Königshofen).
For autoradiography studies slides were thawed and pre-incubated for 15 min in incubation buffer (50 mM TRIS HCl, pH 7.4, containing 120 mM NaCl, 5 mM MgCl2,) at room temperature. Thereafter, 800 µL of incubation buffer, containing 0.1 MBq of the respective radiotracer were pipetted on the slide and incubated at room temperature for 60 min. For displacement studies BIBP3226 (1 µM or 10 µM) was added to the incubation buffer before pipetting on the slides. Afterwards slides were washed by placing in ice cold incubation buffer (3 × 2 min) followed by short dipping in ice cold distilled water. Slides were carefully dried in a stream of warm air and finally placed on an autoradiography film (Fuji Imaging Plate BAS-IP SR 2025 E, Fujifilm, Düsseldorf) overnight prior to readout (25 µm resolution) on the autoradiograph (HD-CR-35 Bio, Raytest, Straubenhardt) and analysis with the software AIDA (Raytest). Additional sections were stained with hematoxylin and eosin (H&E) for comparison with the autoradiography images.

[4] = Biodistribution in healthy mice; type: in vivo, mouse; settings: at 30 and 90 min p.i.
Experimental: Biodistribution studies were conducted using female NMRI outbred mice (HsdWin:NMRI) purchased from Envigo (Horst, The Netherlands). Mice were kept in groups of four to five animals in individually ventilated cages in a twelve hours dark/light cycle with unlimited access to water and standard chow. At the age of eight to nine weeks six animals per radiotracer were injected with 2–4 MBq of the respective radiotracer under isoflurane anesthesia. Mice were sacrificed by cervical dislocation 30 or 90 min p.i. of the radiotracer. Blood as well as the organs/tissues lung, liver, kidneys, heart, spleen, brain, muscle, intestines, gall bladder and bones were harvested and analysed in the γ-counter. Samples were weighed and radioactivity in different tissues was calculated as percentage of the total injected dose per gram tissue (%ID/g).

[5] = Radioactive metabolites of Y1R radioligands in mouse blood; type: in vivo
Experimental: Nude mice were anesthetised with isoflurane and injected with the respective radiotracer (3–25 MBq) into the tail vein. After 5 min, animals were sacrificed by cervical dislocation and approx. 100 µL blood were collected from the abdomen and transferred into Li-heparinised Microvettes® (100 LH, Sarstedt). The same volume of aqueous urea (0.8 g/mL) was added and the Microvette® was centrifuged (2000 × g, 5 min). The supernatant was transferred to a 1.5 mL reaction vial, mixed with the same volume of 10% aqueous TFA and centrifuged (20000 × g, 5 min). This step was repeated once. A sample of the resulting supernatant (100 µL) was analysed by radio-HPLC using two methods (Chromolith RP-18e, 100 × 4.6 mm, 4 mL/min, 0–1 min 25% CH3CN (0.1%TFA) in water (0.1%TFA), 1–6 min 25–60%, 6–7 min 60–100%, 7–8 min 100%; Kromasil 100 C8 5 µm, 250 × 4.6 mm, 1.5 mL/min, 1–25 min 20–53.3% CH3CN (0.1% TFA) in water (0.1% TFA), 25–27 min 53.3–80%, 27–28 min 80–100%, 28–32 min 100%).

MCF-7-Y1 tumours = assay: Small animal PET in MCF-7-Y1 xenografted nude mice; type: in vivo, mouse; settings: 45–60 min p.i., blocking by co-injection of BIBP3226 1 mg/kg
Experimental: For the NPY Y1R xenograft model, female NMRI nude mice (HsdCpb:NMRI-Foxn1^nu) were purchased from Envigo (Horst, The Netherlands) at the age of three weeks. Mice were kept in groups of four to five animals in individually ventilated cages in a twelve hours dark/light cycle with unlimited access to water and standard chow. At the age of nine to ten weeks one 17β-estradiol pellet per animal (0.72 mg per pellet, 3 mm diameter) with a 60-day release time (Innovative Research of America, Sarasota, FL, USA) was subcutaneously implanted on the back under isoflurane anesthesia. After three days, approximately 10^6 MCF-7-Y1 tumour cells (in 50 µL PBS) were mixed with Matrigel (50 µL, BD Biosciences, Heidelberg) and then injected subcutaneously at the back. Tumour diameters and weight of the animals were recorded five times a week. Imaging studies were performed four weeks after inoculation of the cells.
Small animal PET scans were performed on an Inveon™ microPET scanner (Siemens Healthcare, Erlangen) under isoflurane anesthesia (3%). Tumour bearing mice (26–35 g, n = 2–3 for each radioligand) were intravenously injected into the tail vein with the respective radiotracer (1.5–4.2 MBq in about 100 µL of saline) under isoflurane anesthesia (3–4%). Static images were acquired for 15 min starting 45 min p.i. of the radiotracer. For displacement studies, the same mice were co-injected with the radiotracer ([^18F]12 and [^18F]13 only) and BIBP3226 (1 mg/kg). Images were corrected for decay and attenuation and MAP (iterative maximum a posteriori) images were reconstructed using the built-in software of the PET scanner. Evaluation of the MAP images was conducted using the software PMOD (version 3.6, PMOD Technologies LLC, Zürich). Regions of interests (ROIs) were drawn and radioactivity concentration within these regions was obtained from the mean values and calculated as percentage of the total injected dose per gram tissue (% ID/g).

hY5R = biological target: T1, hY5R (Homo sapiens, UniProt Q15761); settings: read-out: Kd of the radioligand (Y5R); cited from earlier work
T1 construct: expressed in transfected cells; host or cells: HEC-1b cells (HEC-1b hY5R)
T1 sequence (Q15761 1-445): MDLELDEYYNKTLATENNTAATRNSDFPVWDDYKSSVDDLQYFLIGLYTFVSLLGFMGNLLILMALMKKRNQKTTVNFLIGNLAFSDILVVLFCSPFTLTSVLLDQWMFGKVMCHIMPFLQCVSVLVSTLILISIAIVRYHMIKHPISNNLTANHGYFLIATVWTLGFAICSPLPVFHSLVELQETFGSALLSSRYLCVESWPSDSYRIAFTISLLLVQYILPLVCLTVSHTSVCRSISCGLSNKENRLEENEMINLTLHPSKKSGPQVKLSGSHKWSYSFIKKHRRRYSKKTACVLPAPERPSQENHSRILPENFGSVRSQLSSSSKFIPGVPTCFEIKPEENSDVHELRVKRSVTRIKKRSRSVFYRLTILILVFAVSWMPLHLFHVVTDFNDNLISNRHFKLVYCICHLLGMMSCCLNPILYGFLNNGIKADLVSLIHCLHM

Compound: NC(N)=NCCC[C@@H](NC(=O)C(c1ccccc1)c1ccccc1)C(=O)NCc1ccc(O)cc1 [BIBP3226]
- Ki (Y1R): 1.3 nM

Compound: N/C(=N/C(=O)NCc1cn(CCOCC[18F])nn1)NCCC[C@@H](NC(=O)C(c1ccccc1)c1ccccc1)C(=O)NCc1ccc(O)cc1 [[^18F]12, (2R)‐5‐{[(1Z)‐Amino({[({1‐[2‐(2‐[^18F]fluoroethoxy)ethyl]‐1H‐1,2,3‐triazol‐4‐yl}methyl)carbamoyl]-imino})methyl]amino}‐2‐(2,2‐diphenylacetamido)‐N‐[(4‐hydroxyphenyl)methyl]pentanamide]
- logD [1]: 1.74 ± 0.07
- fraction unbound at 10 min [2]: 0.38
- Stability over 3 h in human serum [3]: >99%
- specific binding to MCF-7-Y1 tumour slices (autoradiography) (MCF-7-Y1 tumour slices): marked specific binding; also recorded: highest specific binding to Y1R-positive cells and to tumour slices
- kidney uptake [4]: about three times higher
- radiometabolites in the blood ([5]; mouse): > 90%
- stability in the blood in vivo (in words) ([5]; mouse blood samples taken early after radiotracer injection): underwent rapid degradation in the blood
- intact radioligand in blood samples ([5]; mouse, 5 min p.i.): 10%
- tumour visualisation / specific tumour accumulation in PET (MCF-7-Y1 tumours): displaceable and thus specific Y1R-mediated tumour acculuation in vivo; also recorded: enhanced and specific tumour uptake; also recorded: highest specific binding to the Y1R-positive tumour in vivo

Compound: [^3H]propionyl-pNPY: tritiated radioligand used for competition binding at hY2R and hY5R
- Kd (hY5R): 4.8 nM
